From patent US20090011424A1, “Cancer-suppressing agents” (Tokyo Medical and Dental University, priority 2005, published 2009)

Test system: NR1I2 gene
Experiment: RT-PCR of NR1I2 messenger RNA in 8 neuroblastoma cell lines cultured with 5-aza-dCyd
Assay type: cell-based, human
Details: 8 neuroblastoma cell lines lacking NR1I2 mRNA; 1 μM for 5 days
Excerpt: Cell lines used were human-derived neuroblastoma cells SK-N-KS, SK-N-AS, SK-N-SH, SK-N-DZ, SH-SY5Y, MP-N-TS, MP-N-MS, KP-N-RT, KP-N-SIFA, KP-N-SILA, KP-N-TK, KP-N-YS, SMS-KCN, SMS-KAN, SJ-N-CG, NB-1, CHP134, IMR32, and GOTO (Saito-Ohara F, et al. Cancer Res., 63, 1876, 2003), which were derived from […] surgically excised samples. In addition, in order to obtain a material subjected to inhibition of DNA methylation, 5-aza-deoxycytidine (5-aza-dCyd) serving a DNA methyltransferase inhibitor was added to each cell at a concentration of 1 μM for 5 days during culture.
Under general culture conditions, 8 neuroblastoma cell lines lacking the expression of messenger RNA of NR1I2 gene were cultured with the addition of 5-aza-deoxycytidine (5-aza-dCyd) serving as a DNA methyltransferase inhibitor at a concentration of 1 μM for 5 days. The expression levels of messenger RNA of NR1I2 gene in the cells were compared with each other by RT-PCR (FIG. 4). As a control for the expression level obtained by RT-PCR, GAPDH was used.

With `Nc1ncn([C@H]2C[C@H](O)[C@@H](CO)O2)c(=O)n1` [5-aza-dCyd, 5-aza-deoxycytidine] the “expression of messenger RNA of NR1I2 gene” value was “expression of messenger RNA of NR1I2 genes was observed”.
